Source: ChEMBL document CHEMBL2380198, “SAR and evaluation of novel 5H-benzo[c][1,8]naphthyridin-6-one analogs as Aurora kinase inhibitors” (Bioorg Med Chem Lett, 2013)
Active and inactive are the calls of the source. The rule behind the calls is not given here.

How the values were obtained:
Aurora kinase B [1] = target: T1, Aurora kinase B (Homo sapiens, UniProt Q96GD4); assay: Inhibition of aurora-B (unknown origin)
Aurora kinase A = target: T2, Aurora kinase A (Homo sapiens, UniProt O14965); assay: Inhibition of aurora-A (unknown origin)
T2 sequence (O14965 whole entry): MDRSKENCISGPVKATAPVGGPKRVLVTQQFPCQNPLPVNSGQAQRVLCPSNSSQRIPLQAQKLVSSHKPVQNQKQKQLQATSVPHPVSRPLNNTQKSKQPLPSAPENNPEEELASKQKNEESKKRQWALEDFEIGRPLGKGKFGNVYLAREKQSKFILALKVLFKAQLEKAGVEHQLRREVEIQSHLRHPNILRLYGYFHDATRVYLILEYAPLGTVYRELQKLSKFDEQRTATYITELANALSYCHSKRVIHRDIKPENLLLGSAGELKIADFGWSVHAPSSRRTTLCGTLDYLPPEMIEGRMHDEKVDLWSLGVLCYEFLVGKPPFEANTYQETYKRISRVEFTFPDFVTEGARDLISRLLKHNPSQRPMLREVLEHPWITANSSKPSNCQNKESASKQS

MIA PaCa-2 [2] = assay: Antiproliferative activity against human MIAPaCa2 cells; type: functional, cell-based
[3] = target: Vascular endothelial growth factor receptor 3 (Homo sapiens, UniProt P35916); assay: Inhibition of Flt4 (unknown origin)
[4] = target: Serine/threonine-protein kinase Chk2 (Homo sapiens, UniProt O96017); assay: Inhibition of CHK2 (unknown origin)
[5] = target: Proto-oncogene tyrosine-protein kinase receptor Ret (Homo sapiens, UniProt P07949); assay: Inhibition of Ret (unknown origin)
LIM domain kinase 1 = LIM domain kinase 1 (Homo sapiens, UniProt P53667); assay: Inhibition of LIMK1 (unknown origin)
Mus musculus = assay: Inhibition of aurora-B in mouse bone marrow assessed as reduction of phosphorylation of histone H3 at 150 and 300 mg/kg, po after 2 hrs; type: functional
[6] = Oral bioavailability in mouse at 5 mg/kg; type: ADME, organism-based; conditions: in vivo
[7] = Half life in mouse at 5 mg/kg, po; type: ADME, organism-based; design: dose 5 mg/kg, route oral; conditions: in vivo
[8] = AUC in mouse at 5 mg/kg, po; type: ADME, organism-based; design: dose 5 mg/kg, route oral; conditions: plasma
[9] = Cmax in mouse at 5 mg/kg, po; type: ADME, organism-based; design: dose 5 mg/kg, route oral; conditions: in vivo
[10] = Volume of distribution at steady state in mouse at 5 mg/kg, iv; type: ADME, organism-based; design: dose 5 mg/kg, route intravenous; conditions: in vivo, read-out: Vdss
[11] = Clearance in mouse at 5 mg/kg, iv; type: ADME, organism-based; design: dose 5 mg/kg, route intravenous; conditions: in vivo
[12] = Cmax in mouse at 5 mg/kg, iv; type: ADME, organism-based; design: dose 5 mg/kg, route intravenous; conditions: in vivo
[13] = Half life in mouse at 5 mg/kg, iv; type: ADME, organism-based; design: dose 5 mg/kg, route intravenous; conditions: in vivo
[14] = AUC in mouse at 5 mg/kg, iv; type: ADME, organism-based; design: dose 5 mg/kg, route intravenous; conditions: plasma
[15] = target: Tyrosine-protein kinase Blk (Homo sapiens, UniProt P51451); assay: Inhibition of Blk (unknown origin)
[16] = target: Tyrosine-protein kinase ABL2 (Homo sapiens, UniProt P42684); assay: Inhibition of Arg (unknown origin)
[17] = target: Macrophage colony-stimulating factor 1 receptor (Homo sapiens, UniProt P07333); assay: Inhibition of Fms (unknown origin)
MIA PaCa-2 [18] = assay: Induction of endoreduplication human MIAPaCa2 cells assessed as accumulation of cells with >4N DNA content after 24 hrs; type: functional, cell-based
Aurora kinase B [19] = target: T1, Aurora kinase B; assay: Inhibition of aurora-B in human MIAPaCa2 cells assessed as reduction of phosphorylation of histone H3; type: cell-based, MIA PaCa-2
[20] = target: High affinity nerve growth factor receptor (Homo sapiens, UniProt P04629); assay: Inhibition of TrkA (unknown origin)
[21] = target: T3, Mitogen-activated protein kinase 13 (Homo sapiens, UniProt O15264); assay: Inhibition of SAPK4 (unknown origin)
T3 sequence (O15264 whole entry): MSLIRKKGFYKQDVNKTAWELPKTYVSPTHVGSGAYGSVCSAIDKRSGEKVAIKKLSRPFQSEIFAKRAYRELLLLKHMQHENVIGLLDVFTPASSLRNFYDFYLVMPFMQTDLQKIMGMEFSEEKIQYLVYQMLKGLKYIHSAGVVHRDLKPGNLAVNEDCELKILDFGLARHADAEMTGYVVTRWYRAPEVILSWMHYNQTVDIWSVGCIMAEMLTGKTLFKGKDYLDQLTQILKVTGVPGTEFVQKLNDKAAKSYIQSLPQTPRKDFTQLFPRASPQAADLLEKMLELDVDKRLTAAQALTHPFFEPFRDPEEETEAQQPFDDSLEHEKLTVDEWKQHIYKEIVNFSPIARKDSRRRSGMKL

[22] = target: Serine/threonine-protein kinase WNK3 (Homo sapiens, UniProt Q9BYP7); assay: Inhibition of WNK3 (unknown origin)
[23] = target: Serine/threonine-protein kinase SIK1 (Homo sapiens, UniProt P57059); assay: Inhibition of SIK (unknown origin)
[24] = target: Fibroblast growth factor receptor 1 (Homo sapiens, UniProt P11362); assay: Inhibition of FGFR1 (unknown origin)
Activated CDC42 kinase 1 = Activated CDC42 kinase 1 (Homo sapiens, UniProt Q07912); assay: Inhibition of ACK1 (unknown origin)
[25] = Solubility of the compound; type: physicochemical
[26] = target: Tyrosine-protein kinase HCK (Homo sapiens, UniProt P08631); assay: Inhibition of Hck (unknown origin)

T1 sequence (Q96GD4 whole entry): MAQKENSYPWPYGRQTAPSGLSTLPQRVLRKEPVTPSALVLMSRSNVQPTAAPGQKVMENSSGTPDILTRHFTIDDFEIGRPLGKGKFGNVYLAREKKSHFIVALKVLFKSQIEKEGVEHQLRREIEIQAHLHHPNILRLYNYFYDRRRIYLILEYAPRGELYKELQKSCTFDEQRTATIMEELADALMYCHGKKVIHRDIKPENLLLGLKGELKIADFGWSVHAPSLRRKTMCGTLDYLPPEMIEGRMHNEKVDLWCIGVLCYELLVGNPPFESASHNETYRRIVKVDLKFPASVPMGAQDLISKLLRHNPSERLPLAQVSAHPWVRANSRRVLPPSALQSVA
Sequence of Serine/threonine-protein kinase Chk2 (O96017 whole entry): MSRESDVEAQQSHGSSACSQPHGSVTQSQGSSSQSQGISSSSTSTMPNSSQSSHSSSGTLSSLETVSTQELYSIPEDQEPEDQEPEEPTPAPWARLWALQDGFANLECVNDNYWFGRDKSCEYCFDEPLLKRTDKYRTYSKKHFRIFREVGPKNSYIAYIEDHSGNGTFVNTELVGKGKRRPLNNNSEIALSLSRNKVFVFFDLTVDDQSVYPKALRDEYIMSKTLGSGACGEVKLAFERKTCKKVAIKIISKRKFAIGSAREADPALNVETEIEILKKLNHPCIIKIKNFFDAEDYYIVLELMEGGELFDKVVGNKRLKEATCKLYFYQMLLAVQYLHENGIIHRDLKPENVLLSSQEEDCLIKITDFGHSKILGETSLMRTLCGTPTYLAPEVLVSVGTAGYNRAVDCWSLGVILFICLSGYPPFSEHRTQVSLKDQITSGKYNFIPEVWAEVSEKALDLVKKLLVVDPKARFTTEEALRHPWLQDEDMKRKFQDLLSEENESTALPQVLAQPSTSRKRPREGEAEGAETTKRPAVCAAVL
Sequence of Proto-oncogene tyrosine-protein kinase receptor Ret (P07949 whole entry, the tested form may be a part): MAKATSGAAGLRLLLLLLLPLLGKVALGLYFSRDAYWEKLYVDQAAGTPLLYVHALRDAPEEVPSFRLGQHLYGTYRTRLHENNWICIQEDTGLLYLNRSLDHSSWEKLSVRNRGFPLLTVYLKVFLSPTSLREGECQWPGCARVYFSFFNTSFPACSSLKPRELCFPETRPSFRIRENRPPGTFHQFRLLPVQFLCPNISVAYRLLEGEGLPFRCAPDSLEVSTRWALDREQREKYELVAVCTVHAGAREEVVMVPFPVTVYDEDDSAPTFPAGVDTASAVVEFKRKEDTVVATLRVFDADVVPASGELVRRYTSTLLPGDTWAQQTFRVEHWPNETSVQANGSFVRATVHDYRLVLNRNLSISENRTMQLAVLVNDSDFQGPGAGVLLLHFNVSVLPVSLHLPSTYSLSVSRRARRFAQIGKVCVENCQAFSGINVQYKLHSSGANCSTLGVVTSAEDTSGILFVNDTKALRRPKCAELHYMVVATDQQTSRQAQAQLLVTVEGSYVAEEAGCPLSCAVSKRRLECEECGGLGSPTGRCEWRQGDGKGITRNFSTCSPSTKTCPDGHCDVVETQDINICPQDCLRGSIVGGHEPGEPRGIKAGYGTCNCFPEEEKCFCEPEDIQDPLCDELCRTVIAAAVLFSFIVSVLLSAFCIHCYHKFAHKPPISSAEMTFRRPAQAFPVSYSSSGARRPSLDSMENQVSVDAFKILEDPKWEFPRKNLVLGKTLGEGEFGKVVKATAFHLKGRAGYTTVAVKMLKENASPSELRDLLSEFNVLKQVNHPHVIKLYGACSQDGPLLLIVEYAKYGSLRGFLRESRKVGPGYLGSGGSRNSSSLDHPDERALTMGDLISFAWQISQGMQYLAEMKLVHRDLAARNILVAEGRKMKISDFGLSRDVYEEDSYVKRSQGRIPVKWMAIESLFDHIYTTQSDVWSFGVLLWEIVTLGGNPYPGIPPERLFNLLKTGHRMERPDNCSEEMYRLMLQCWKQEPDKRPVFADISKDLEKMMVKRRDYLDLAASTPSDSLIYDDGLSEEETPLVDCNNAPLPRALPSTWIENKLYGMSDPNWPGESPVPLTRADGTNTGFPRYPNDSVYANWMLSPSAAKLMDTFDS
Sequence of LIM domain kinase 1 (P53667 whole entry, the tested form may be a part): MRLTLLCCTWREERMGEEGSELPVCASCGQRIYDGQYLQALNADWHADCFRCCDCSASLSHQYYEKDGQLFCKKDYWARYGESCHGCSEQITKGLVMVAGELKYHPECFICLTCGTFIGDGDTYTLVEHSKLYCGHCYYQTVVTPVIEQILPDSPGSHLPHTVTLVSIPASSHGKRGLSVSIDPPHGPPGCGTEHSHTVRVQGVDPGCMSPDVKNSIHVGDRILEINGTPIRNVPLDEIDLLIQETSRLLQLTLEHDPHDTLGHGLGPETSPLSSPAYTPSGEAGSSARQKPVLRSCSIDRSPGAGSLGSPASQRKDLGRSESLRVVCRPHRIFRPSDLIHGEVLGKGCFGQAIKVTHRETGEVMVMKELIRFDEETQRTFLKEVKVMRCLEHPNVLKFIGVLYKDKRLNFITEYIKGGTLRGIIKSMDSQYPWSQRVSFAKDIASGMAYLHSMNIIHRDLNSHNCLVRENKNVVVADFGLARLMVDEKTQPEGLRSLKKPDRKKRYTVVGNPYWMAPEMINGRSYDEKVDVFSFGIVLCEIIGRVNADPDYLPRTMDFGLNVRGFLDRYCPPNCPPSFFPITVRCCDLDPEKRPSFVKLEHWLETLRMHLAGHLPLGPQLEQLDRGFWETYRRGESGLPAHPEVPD
Sequence of Vascular endothelial growth factor receptor 3 (P35916 whole entry): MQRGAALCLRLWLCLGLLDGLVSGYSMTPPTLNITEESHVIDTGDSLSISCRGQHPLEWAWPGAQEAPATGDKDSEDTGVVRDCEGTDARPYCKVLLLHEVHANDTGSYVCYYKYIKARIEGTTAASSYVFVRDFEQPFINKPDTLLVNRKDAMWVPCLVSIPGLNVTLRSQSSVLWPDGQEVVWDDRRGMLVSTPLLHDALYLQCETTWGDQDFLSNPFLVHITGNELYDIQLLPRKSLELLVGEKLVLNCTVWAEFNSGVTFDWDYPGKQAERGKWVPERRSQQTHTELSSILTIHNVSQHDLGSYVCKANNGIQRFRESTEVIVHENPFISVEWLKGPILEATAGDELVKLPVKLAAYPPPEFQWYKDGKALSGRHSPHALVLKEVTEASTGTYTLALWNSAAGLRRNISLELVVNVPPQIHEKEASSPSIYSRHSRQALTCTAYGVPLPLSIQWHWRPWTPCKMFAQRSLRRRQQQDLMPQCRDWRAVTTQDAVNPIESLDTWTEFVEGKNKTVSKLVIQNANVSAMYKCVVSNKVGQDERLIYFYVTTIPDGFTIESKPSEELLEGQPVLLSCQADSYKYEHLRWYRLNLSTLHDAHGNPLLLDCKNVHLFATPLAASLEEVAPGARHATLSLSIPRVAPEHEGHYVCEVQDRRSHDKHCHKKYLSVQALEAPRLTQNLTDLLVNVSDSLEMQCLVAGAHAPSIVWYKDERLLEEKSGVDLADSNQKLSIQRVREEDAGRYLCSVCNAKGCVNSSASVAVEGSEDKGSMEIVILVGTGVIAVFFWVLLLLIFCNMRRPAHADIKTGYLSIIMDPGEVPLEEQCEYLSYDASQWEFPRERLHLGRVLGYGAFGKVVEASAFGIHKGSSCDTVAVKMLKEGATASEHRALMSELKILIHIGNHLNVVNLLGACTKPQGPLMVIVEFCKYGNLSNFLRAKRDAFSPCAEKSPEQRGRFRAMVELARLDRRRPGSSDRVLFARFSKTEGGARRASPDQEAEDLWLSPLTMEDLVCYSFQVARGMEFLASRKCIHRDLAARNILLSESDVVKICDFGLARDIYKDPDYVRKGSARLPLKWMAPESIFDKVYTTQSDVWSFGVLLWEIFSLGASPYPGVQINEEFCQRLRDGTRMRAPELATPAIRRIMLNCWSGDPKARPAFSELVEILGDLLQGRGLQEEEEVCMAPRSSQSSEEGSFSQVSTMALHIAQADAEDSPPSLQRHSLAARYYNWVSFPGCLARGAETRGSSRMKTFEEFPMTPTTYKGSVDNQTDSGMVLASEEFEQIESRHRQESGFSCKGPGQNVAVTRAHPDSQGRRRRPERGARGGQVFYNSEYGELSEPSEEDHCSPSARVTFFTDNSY
Sequence of Serine/threonine-protein kinase SIK1 (P57059 whole entry): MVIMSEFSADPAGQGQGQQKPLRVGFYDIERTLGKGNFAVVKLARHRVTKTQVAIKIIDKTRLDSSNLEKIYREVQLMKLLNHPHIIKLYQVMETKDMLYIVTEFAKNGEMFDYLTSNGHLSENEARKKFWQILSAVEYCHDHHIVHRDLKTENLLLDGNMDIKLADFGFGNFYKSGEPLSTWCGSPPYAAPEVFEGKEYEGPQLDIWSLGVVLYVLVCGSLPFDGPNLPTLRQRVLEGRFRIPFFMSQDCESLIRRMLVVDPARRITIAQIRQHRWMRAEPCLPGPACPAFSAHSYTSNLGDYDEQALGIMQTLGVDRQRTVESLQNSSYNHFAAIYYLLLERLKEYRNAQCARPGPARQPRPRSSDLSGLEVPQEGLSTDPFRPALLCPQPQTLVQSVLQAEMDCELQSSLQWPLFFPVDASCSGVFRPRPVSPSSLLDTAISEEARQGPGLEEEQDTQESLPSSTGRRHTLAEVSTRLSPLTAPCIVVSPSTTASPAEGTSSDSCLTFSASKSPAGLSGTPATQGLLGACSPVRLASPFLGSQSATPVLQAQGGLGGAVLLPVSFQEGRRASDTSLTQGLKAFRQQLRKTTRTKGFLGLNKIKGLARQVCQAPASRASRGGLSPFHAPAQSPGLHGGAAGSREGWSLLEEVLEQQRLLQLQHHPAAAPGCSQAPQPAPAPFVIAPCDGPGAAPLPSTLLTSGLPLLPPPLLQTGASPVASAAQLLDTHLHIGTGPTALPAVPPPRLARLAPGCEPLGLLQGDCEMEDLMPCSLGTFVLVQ

| SMILES | IC50 (Aurora kinase B [1]) [µM] | IC50 (Aurora kinase A) [µM] | IC50 (MIA PaCa-2 [2]) [µM] | also measured |
| --- | --- | --- | --- | --- |
| O=C(Nc1ccc(Nc2ccnc3[nH]c(=O)c4ccccc4c23)cc1)c1c(F)cccc1F | 0.0006 | 0.005 | 0.293 |  |
| O=C(Nc1ccc(Nc2ccnc3[nH]c(=O)c4ccccc4c23)cn1)c1ccccc1 | 0.013 | 0.07 |  |  |
| O=C(Nc1ccc(Nc2ccnc3[nH]c(=O)c4ccccc4c23)cc1)c1cccc(C(F)(F)F)c1F | 0.001 | 0.007 | 0.253 |  |
| O=C(Nc1ccc(Nc2ccnc3[nH]c(=O)c4ccccc4c23)cc1)c1ccc(F)cc1 | 0.001 | 0.004 | 0.719 |  |
| O=C(Nc1ccc(Nc2ccnc3[nH]c(=O)c4ccccc4c23)cc1)c1ccc(C(F)(F)F)cc1 | 0.006 | 0.027 | 2.71 |  |
| O=C(Nc1ccc(Nc2ccnc3[nH]c(=O)c4ccccc4c23)nc1)c1ccccc1 | 0.079 | 0.615 |  |  |
| Nc1ccc(Nc2ccnc3[nH]c(=O)c4ccccc4c23)cc1 | 0.174 | 1.15 |  |  |
| O=C(Nc1ccc(Nc2ccnc3[nH]c(=O)c4ccccc4c23)cc1)c1ccc(F)cc1C(F)(F)F | 0.0004 | 0.0003 | 0.17 | IC50 [3]: 0.867 µM; IC50 [4]: 0.161 µM; IC50 [5]: 0.706 µM; IC50 (LIM domain kinase 1): 0.018 µM; inhibition in vivo at 300 mg/kg (Mus musculus): 40%; bioavailability [6]: 41%; half-life [7]: 2.74 h; AUC [8]: 1440 ng·h/mL; Cmax [9]: 321 ng/mL; Vd [10]: 1.48 L/kg; clearance [11]: 19.7 mL/min/kg; Cmax [12]: 3930 ng/mL; half-life [13]: 1.36 h; AUC [14]: 4190 ng·h/mL; IC50 [15]: 0.959 µM; IC50 [16]: 0.863 µM; IC50 [17]: 0.575 µM; Activity (MIA PaCa-2 [18]): Active; IC50 (Aurora kinase B [19]): 0.052 µM |
| O=C(Nc1ccc(Nc2ccnc3[nH]c(=O)c4ccccc4c23)cc1)c1cccc(F)c1 | 0.001 | 0.007 | 0.919 |  |
| CNc1ccc(Nc2ccnc3[nH]c(=O)c4ccccc4c23)cc1 |  | 0.471 |  |  |
| O=c1[nH]c2nccc(Cl)c2c2ccccc12 | 1.44 | 3.01 |  |  |
| Cc1ccc(C(=O)Nc2ccc(Nc3ccnc4[nH]c(=O)c5ccccc5c34)cc2)cc1 | 0.002 | 0.003 | 2.39 |  |
| O=C(Nc1ccc(Nc2ccnc3[nH]c(=O)c4ccccc4c23)cc1)c1cc(F)cc(F)c1 | 0.0007 | 0.007 | 0.823 |  |
| O=C(Nc1ccc(Nc2ccnc3[nH]c(=O)c4ccccc4c23)cc1)c1ccccc1 | 0.001 | 0.004 | 0.329 | IC50 [3]: 0.417 µM; IC50 [20]: 0.819 µM; IC50 [21]: 0.411 µM; IC50 [22]: 0.401 µM; IC50 [23]: 0.211 µM; IC50 [24]: 0.175 µM; IC50 [4]: 0.041 µM; IC50 (Activated CDC42 kinase 1): 0.149 µM; IC50 [5]: 0.015 µM; IC50 (LIM domain kinase 1): 0.036 µM; IC50 (Aurora kinase B [19]): 0.208 µM; solubility [25]: < 1 µM; IC50 [26]: 0.958 µM |
| Nc1ccnc2[nH]c(=O)c3ccccc3c12 |  | 3.01 |  |  |
| O=C(Nc1ccc(Nc2ccnc3[nH]c(=O)c4ccccc4c23)cc1)c1ccc(F)cc1F | 0.001 | 0.002 | 0.374 |  |
| O=C(Nc1ncc(Nc2ccnc3[nH]c(=O)c4ccccc4c23)cn1)c1ccccc1 | 0.021 | 0.088 |  |  |
| O=C(Nc1ccc(Nc2ccnc3[nH]c(=O)c4ccccc4c23)cc1)c1cccc(F)c1F | 0.0005 | 0.002 | 0.209 |  |
| O=C(Nc1ccc(Nc2ccnc3[nH]c(=O)c4ccccc4c23)cc1)c1ccc(C(F)(F)F)cc1F |  | 0.009 | 4.99 |  |
| O=C(Nc1ccc(Nc2ccnc3[nH]c(=O)c4ccccc4c23)cc1)c1cc(F)cc(C(F)(F)F)c1 |  | 0.009 | 0.211 |  |
| O=c1[nH]c2nccc(Nc3ccccc3)c2c2ccccc12 |  | 1.03 |  |  |
| COc1cccc(F)c1C(=O)Nc1ccc(Nc2ccnc3[nH]c(=O)c4ccccc4c23)cc1 | 0.001 | 0.003 | 1.19 |  |
| O=C(Nc1ccc(Nc2ccnc3[nH]c(=O)c4ccccc4c23)cc1)c1ccccc1C(F)(F)F | 0.001 | 0.004 | 0.405 |  |
| COc1ccccc1C(=O)Nc1ccc(Nc2ccnc3[nH]c(=O)c4ccccc4c23)cc1 | 0.002 | 0.007 | 2.22 |  |
| O=c1[nH]c2ncccc2c2ccccc12 |  | 5.54 |  |  |
| O=C(Nc1ccc(Nc2ccnc3[nH]c(=O)c4ccccc4c23)cc1)c1ccccc1F | 0.002 | 0.009 | 6.25 |  |
| O=C(Nc1ccc(Nc2ccnc3[nH]c(=O)c4ccccc4c23)cc1)c1ccc(F)c(F)c1 | 0.0008 | 0.007 | 0.409 |  |
